Laboratory results reported in article PMC11696576, “Next generation thiazolyl ketone inhibitors of cytosolic phospholipase A2 α for targeted cancer therapy” (Nature Communications, 2025).
Several values for one entry are separate records, joined by “and”; a condition that tells them apart may be missing. Equal values may be shown once. Read-outs that look alike come from different tables or passages of the source.

Test system: panel of 66 cancer cell lines
Assay: cancer cell line screen, proliferation assay (ATPlite, 72 h)
Assay type: cell-based, human
Conditions: for raw signal, dose-response (Figure S7a): rep1, rep2, listed as AVX235; for IC50: Homo sapiens
Description: Targeting specific molecular vulnerabilities in cancer is considered a key approach to reducing the adverse effects of chemotherapy. However, the events that govern the susceptibility to suppression of the cPLA2α in cancer remain largely unexplored. We therefore took the approach of screening the antiproliferative activity of AVX420 in a panel of 66 cancer cell lines (hereafter referred to as the cancer cell line screen or CCLS) to allow us to investigate molecular and genetic vulnerabilities to the drug.
Screening of compound activities in 66 cancer cell lines was carried out at the Netherlands Translation Research Center. Briefly, proliferation assays were performed 72 h after compound addition using ATPlite 1step reagent (Perkin Elmer). IC50s calculated by non-linear regression analysis were used as a measure of compound activity for investigating associations with genetic factors. A complete description of the laboratory and data analysis methods are available in the Supplementary Information file (Supplemental Methods: Cancer Cell Line Screening).
Cancer cell line screening
Cell proliferation assays
All cell lines were from the American Type Culture Collection (ATCC) Manassas, Virginia (US) and maintained under ATCC-recommended protocols and within 9 pas- […]
DMSO at -80°C until one hour before use. Cells exposed within one hour after thaw-ing of the compound stocks. Final compound concentration range in the assay was 10 […]
cated by supplier. Compounds were dissolved in 100 % DMSO and stored at room temperature. Final concentration of the reference compounds in the assay was 3.16x10-5 M to 3.16x10-9 M. The final DMSO concentration during incubation was […]
Cell lines were plated in Advanced RPMI 1640 (Gibco, ref 12633-012) cell culture medium, containing 1% Glutamax solution (Gibco, ref 35050-038), 0.4% Pen Strep solution (Gibco, ref 15140-122) and bovine serum. The cPLA2α inhibitors were tested in 0.5% bovine serum (HyClone, ref SH30072.03) with the exception of769-P, A-204, BT-549, SR, T98G, which were tested in the presence of 1.0% serum and A-704 and LNCaP FGS, which were tested in the in the presence of 10% serum. Reference com-pounds were all tested in the presence of 10% bovine serum.
Cells were dispensed in a 384-well plate, at a concentration of 200 - 3200 cells per well, depending on the cell line, in 45 μL medium. Plated cells were incubated in a humidified atmosphere of 5% CO2 at 37 °C. After 24 hours, 5 μL of compound dilu-tion was added and plates were further incubated for another 72 hours. After 72 hours, 25 μL of ATPlite 1Step™ (PerkinElmer) solution was added to each well, and subse-quently shaken for 2 minutes. After 10 minutes of incubation in the dark, the lumines-cence was recorded on an Envision multimode reader (PerkinElmer).
Cell growth control. The cellular doubling times of all cell lines are calculated from the t = 0 hours and t = 72 hours growth signals of the untreated cells. If the doubling time is out of specification (0.5 – 2.0 times deviating from historic average) the assay […]
IC50s were calculated by non-linear regression using IDBS XLfit 5. The percentage growth after 72h (%-growth) was calculated as follows: 100% x (luminescence t = 72h / luminescence untreated,t=72h). This was fitted to the 10log compound concentration (conc) by a 4-parameter logistics curve: %-growth = bottom + (top – bottom) / (1+ 10(logIC50 – conc)*hill)), where hill is the Hill-coefficient, and bottom and top the asymptotic mini-mum and maximum cell growth that the compound allows in that assay.
All analysis were performed in the statistical software package R and visualized using GraphPad Prism version 10.0 .0

## CCCCCCCCc1ccc(OCC(=O)c2nc(C(=O)OC)cs2)cc1 [GK470]
10log of IC50 in nM, panel average
  average panel 10logIC50: 4.20
769P, kidney
  pIC50: 4,709
786O, kidney
  pIC50: 4,868
A172, central_nervous_system
  pIC50: 4,701
A204, soft_tissue
  pIC50: 4,858
A375, skin
  pIC50: 4,792
A427, lung
  pIC50: 4,933
A498, kidney
  pIC50: 4,604
A549, lung
  pIC50: 4,718
ACHN, kidney
  pIC50: 4,677
AN3CA, endometrium
  pIC50: 4,738
AU565, breast
  pIC50: 4,915
AsPC1, pancreas
  pIC50: 4,828
BT20, breast
  pIC50: 4,526
BT549, breast
  pIC50: 4,643
BxPC3, pancreas
  pIC50: 4,719
C33A, cervix
  pIC50: 4,835
CAL27, upper_aerodigestive_tract
  pIC50: 4,767
CCRF-CEM, Log10 M -4
  raw signal, dose-response (Figure S7a): 6827 and 7267
CCRF-CEM, Log10 M -6
  raw signal, dose-response (Figure S7a): 6001427 and 6137653
CCRF-CEM, Log10 M -6.5
  raw signal, dose-response (Figure S7a): 6250880 and 6122947
CCRF-CEM, Log10 M -7
  raw signal, dose-response (Figure S7a): 6208933 and 6388787
CCRF-CEM, Log10 M -7.5
  raw signal, dose-response (Figure S7a): 5662213 and 5677453
CCRF-CEM, Log10 M -8
  raw signal, dose-response (Figure S7a): 5954640 and 6349707
COLO829, unknown
  pIC50: 4,775
Daoy, central_nervous_system
  pIC50: 4,799
DoTc24510, cervix
  pIC50: 4,777
FaDu, upper_aerodigestive_tract
  pIC50: 4,794
HCT15, large_intestine
  pIC50: 4,921
HCT116, large_intestine
  pIC50: 4,798
769-P, read-out: IC50
  IC50: 19.6 µM
786-0, 786-O, read-out: IC50
  IC50: 13.6 µM
72 h, panel average, 72 h, read-out: average IC50 in the cancer cell line screen
  IC50: 16.3 µM
A 172, A-172, read-out: IC50
  IC50: 19.9 µM
A204, A-204, read-out: IC50
  IC50: 13.9 µM
A388, cervix, read-out: pIC50 (converted)
  IC50: 14.5 µM
A388, read-out: IC50
  IC50: 14.5 µM
A498, A-498, read-out: IC50
  IC50: 24.9 µM
A549, A-549, read-out: IC50
  IC50: 19.1 µM
A704, A704, kidney, read-out: pIC50 (converted)
  IC50: 34 µM
A704, A-704, read-out: IC50
  IC50: > 100 µM
A-375, A375, read-out: IC50
  IC50: 16.1 µM
A-427, A-427, read-out: IC50
  IC50: 11.7 µM
ACHN, read-out: IC50
  IC50: 21.1 µM
AN3-CA, AN3 CA, read-out: IC50
  IC50: 18.3 µM
ASPC1, AsPC-1, read-out: IC50
  IC50: 14.8 µM
AU565, AU-565, read-out: IC50
  IC50: 12.2 µM
BT-20, BT-20, read-out: IC50
  IC50: 29.8 µM
BT-549, BT-549, read-out: IC50
  IC50: 22.7 µM
BXPC-3, BxPC-3, read-out: IC50
  IC50: 19.1 µM
C-33-A, C-33 A, read-out: IC50
  IC50: 14.6 µM
CAL-27, CAL 27, read-out: IC50
  IC50: 17.1 µM
CCRF-CEM, CCRFCEM, blood, read-out: pIC50 (converted)
  IC50: 11.7 µM
CCRF-CEM, read-out: IC50
  IC50: 11.7 µM
COLO 205, COLO 205, read-out: IC50
  IC50: 18.5 µM
COLO-829, COLO 829, read-out: IC50
  IC50: 16.8 µM
DLD-1, DLD1, large_intestine, read-out: pIC50 (converted)
  IC50: 13.8 µM
DLD-1, DLD-1, read-out: IC50
  IC50: 13.8 µM
DU-145, DU 145, read-out: IC50
  IC50: 19.3 µM
Daoy, read-out: IC50
  IC50: 15.9 µM
DoTc2-4510, DoTc2 4510, read-out: IC50
  IC50: 16.7 µM
FaDu, read-out: IC50
  IC50: 16.1 µM
HCT-15, HCT-15, read-out: IC50
  IC50: 12 µM
HCT-116, HCT 116, read-out: IC50
  IC50: 15.9 µM
Hs-578T, Hs 578T, read-out: IC50
  IC50: 13.7 µM
J82, J82, read-out: IC50
  IC50: 15.8 µM
Jurkat E6.1, Jurkat E6.1, read-out: IC50
  IC50: 12.5 µM
K562, K-562, read-out: IC50
  IC50: 10.9 µM
KU812, KU812, read-out: IC50
  IC50: 10.4 µM
LNCaP, LNCaP FGC, read-out: IC50
  IC50: > 100 µM
LS174T, LS 174T, read-out: IC50
  IC50: 13 µM
LoVo, read-out: IC50
  IC50: 19.3 µM
MCF7, MCF7, read-out: IC50
  IC50: 12.7 µM
MG-63, MG63, bone, read-out: pIC50 (converted)
  IC50: 20.4 µM
MG-63, MG-63, read-out: IC50
  IC50: 20.4 µM
MIA PaCa-2, MIA PaCa-2, read-out: IC50
  IC50: 10.9 µM
MOLT-4, MOLT-4, read-out: IC50
  IC50: 12 µM
MeWo, read-out: IC50
  IC50: 17.3 µM
NCI-H82, NCI-H82, read-out: IC50
  IC50: 13.7 µM
NCI-H460, NCI-H460, read-out: IC50
  IC50: 22.5 µM
OVCAR-3, OVCAR-3, read-out: IC50
  IC50: 14.3 µM
PA-1, PA-1, read-out: IC50
  IC50: 11.6 µM
RKO, read-out: IC50
  IC50: 8.87 µM
RPMI-7951, RPMI-7951, read-out: IC50
  IC50: 16.2 µM
RT-4, RT4, read-out: IC50
  IC50: 16.5 µM
SHP77, SHP-77, read-out: IC50
  IC50: 11.9 µM
SJCRH30, read-out: IC50
  IC50: 18.4 µM
